Results published in the supplement of paper PMC13380429.

Columns and labels:
Details in all cases: 72 h
Vero E6 [1] = assay: drug sensitivity score (DSS) for viability; higher = more toxic; extreme values may be limits of the assay
HepG2 [2] = assay: as above
Calu-3 [3] = assay: as above
Caco-2 [4] = assay: as above
U2OS [5] = assay: as above
Vero E6 [6] = assay: cell viability relative to DMSO; higher = less toxic
HepG2 [7] = assay: as above
Calu-3 [8] = assay: as above
Caco-2 [9] = assay: as above
U2OS [10] = assay: as above
Vero E6 [11] = assay: relative viability EC50 (midpoint between 100% and the lowest measured viability); higher = less toxic
HepG2 [12] = assay: as above
Calu-3 [13] = assay: as above
Caco-2 [14] = assay: as above
U2OS [15] = assay: as above

Row | Structure (SMILES) | drug sensitivity score (Vero E6 [1]) | drug sensitivity score (HepG2 [2]) | drug sensitivity score (Calu-3 [3]) | drug sensitivity score (Caco-2 [4]) | drug sensitivity score (U2OS [5]) | cell viability (Vero E6 [6]; 1 nM) [%] | cell viability (Vero E6 [6]; 10 nM) [%] | cell viability (Vero E6 [6]; 100 nM) [%] | cell viability (Vero E6 [6]; 1000 nM) [%] | cell viability (Vero E6 [6]; 10000 nM) [%] | cell viability (HepG2 [7]; 1 nM) [%] | cell viability (HepG2 [7]; 10 nM) [%] | cell viability (HepG2 [7]; 100 nM) [%] | cell viability (HepG2 [7]; 1000 nM) [%] | cell viability (HepG2 [7]; 10000 nM) [%] | cell viability (Calu-3 [8]; 1 nM) [%] | cell viability (Calu-3 [8]; 10 nM) [%] | cell viability (Calu-3 [8]; 100 nM) [%] | cell viability (Calu-3 [8]; 1000 nM) [%] | cell viability (Calu-3 [8]; 10000 nM) [%] | cell viability (Caco-2 [9]; 1 nM) [%] | cell viability (Caco-2 [9]; 10 nM) [%] | cell viability (Caco-2 [9]; 100 nM) [%] | cell viability (Caco-2 [9]; 1000 nM) [%] | cell viability (Caco-2 [9]; 10000 nM) [%] | cell viability (U2OS [10]; 1 nM) [%] | cell viability (U2OS [10]; 10 nM) [%] | cell viability (U2OS [10]; 100 nM) [%] | cell viability (U2OS [10]; 1000 nM) [%] | cell viability (U2OS [10]; 10000 nM) [%] | relative viability EC50 (Vero E6 [11]) [µM] | relative viability EC50 (HepG2 [12]) [µM] | relative viability EC50 (Calu-3 [13]) [µM] | relative viability EC50 (Caco-2 [14]) [µM] | relative viability EC50 (U2OS [15]) [µM]
1 | Cc1cc(C#N)cc(C)c1Oc1nc(Nc2ccc(C#N)cc2)nc(N)c1Br [etravirine] | 0 | 0 | 0 | 0 | 0 | 97.5 | 97.9 | 95.7 | 105 | 107 | 110 | 101 | 92.3 | 99.8 | 102 | 94.3 | 95.8 | 95.7 | 96.5 | 103 | 94 | 93.7 | 97.2 | 105 | 102 | 103 | 95.2 | 97.2 | 95.2 | 95.3 | > 10 | > 10 | > 10 | > 10 | > 10
2 | N#Cc1ccc(C2CCCc3cncn32)cc1 (stereo not given) [fadrozole] | 0 | 0 | 0 | 0 | 0 | 95.4 | 95.6 | 89.1 | 94.9 | 95.2 | 96.9 | 100 | 91.6 | 103 | 96.2 | 91.1 | 103 | 96.6 | 98 | 95.3 | 77.9 | 87.4 | 89.6 | 92.6 | 82.3 | 96.2 | 91.4 | 96.4 | 93.4 | 97.4 | > 10 | > 10 | > 10 | > 10 | > 10
3 | Nc1nc(=O)c2nc(CNc3ccc(C(=O)N[C@@H](CCC(=O)O)C(=O)O)cc3)cnc2[nH]1 [folic-acid] | 0 | 0 | 0 | 0 | 0 | 99.9 | 102 | 97 | 101 | 92.8 | 106 | 101 | 99.8 | 97.2 | 99.4 | 93.5 | 102 | 88.1 | 106 | 97.8 | 89.2 | 103 | 101 | 95.3 | 90.7 | 97.7 | 101 | 97 | 99.4 | 96.4 | > 10 | > 10 | > 10 | > 10 | > 10
4 | O=C(COP(=O)(O)O)[C@@H](O)[C@H](O)[C@H](O)COP(=O)(O)O [fosfructose] | 0 | 0 | 0 | 0 | 0 | 97.6 | 98.1 | 102 | 102 | 94.7 | 108 | 83 | 73.1 | 99.1 | 95.4 | 101 | 101 | 99.9 | 98.8 | 97.2 | 107 | 118 | 91.9 | 94.7 | 93.5 | 97.9 | 106 | 106 | 105 | 99.3 | > 10 | > 10 | > 10 | > 10 | > 10
5 | Cc1ccc(C)c(OCCCC(C)(C)C(=O)O)c1 [gemfibrozil] | 0 | 0 | 0 | 0 | 0 | 98.4 | 101 | 96.5 | 100 | 95.9 | 98.2 | 99.9 | 102 | 106 | 104 | 104 | 104 | 109 | 93.1 | 105 | 102 | 107 | 106 | 93.8 | 101 | 104 | 101 | 104 | 99.1 | 102 | > 10 | > 10 | > 10 | > 10 | > 10
6 | O=C(O)Cc1cccnc1C(=O)O [homoquinolinic-acid] | 0 | 0 | 0 | 0 | 0 | 105 | 106 | 102 | 103 | 94 | 104 | 93.8 | 95.3 | 94 | 93.9 | 92.7 | 89.2 | 97.4 | 95.6 | 111 | 99.5 | 104 | 101 | 96.3 | 105 | 97.4 | 100 | 100 | 99.6 | 99.7 | > 10 | > 10 | > 10 | > 10 | > 10
